We go through eight molecules from patent publication US20080293699A1, “Inhibitors of thapsigargin-induced cell death” (priority 2007, published 2008).

One assay relates to CSM14.1 cells. Description: Primary HTS assay: ATP content (ATPlite) of undifferentiated CSM14.1 cells challenged with thapsigargin. The format is cell-based, rat. To be noted: for IC50: thapsigargin-induced death of undifferentiated CSM14.1, ATP content. The text has this: For convenience, and because transient reductions in temperature that might be associated with large screening experiments could restore Large T activity, we elected to develop our HTS using undifferentiated CSM14.1 cells, with the plan to then confirm hits using differentiated cells. For monitoring cell death, we used a commercially available bioluminescence reagent that determines intracellular ATP content, without requirement for complicated cell processing steps (ATPlite, Perkin Elmer). Thus, ATP was used as a surrogate indicator of cell survival for the primary assay.
Undifferentiated or differentiated CSM14.1 cells were plated at a density of 3,000 cells/well in 40 μL DMEM medium (containing 10% serum, 1 mM L-glutamine, and antibiotics) in 96 well flat-bottom microtiter plates composed of polystrene (Greiner Bio One, polystyrene, white wall, flat bottom, lumitrac, high binding). After overnight incubation at 32° C., DMSO (0.5% v/v) or 100 uM Salubrinal (Sal) in DMSO was delivered. After 2 hrs, 5 uL of a stock solution of 150 uM TG in DMEM medium containing 0.75% (v:v) DMSO to achieve a final concentration of approximately 15 uM. After culturing for 24 hrs, cellular ATP content was measured by addition of 20 uL per well of ATPlite solution (Perkin-Elmer), and then the plates were incubated for three minutes at room temperature, before reading with a Microplate Luminometer (BD Pharmingen Moonlight model 3096).
To determine the reproducibility of the ATP content assay, we prepared a 96-well plate in which half the wells received TG plus DMSO (assay minimum) and half received TG plus Salubrinal (assay maximum), then performed the ATP content studies using undifferentiated CSM14.1 cells (FIG. 6). CSM14.1 cells were cultured overnight at 3,000 cells per well in 96-well flat-bottom plates, then either DMSO (0.5% final concentration) or Salubrinal (100 μM) in DMSO (0.5% final concentration) was added to half the well (48 each). After two hrs, TG was added to all wells (15 μM final). Cells were cultured for 24 hrs, then the ATP content was measured using the ATPlite luminogenic assay. We then adapted this assay to the high-throughput environment, using a Biomex™ FX liquid handler for automated dispensing of assay components into microwells of 96-well plates. First, undifferentiated CSM14.1 cells were grown at 32° C. in DMEM medium supplemented with 10% fetal bovine serum (FBS), 1% penicillin/streptomycin, and 1% L-glutamine in 150 mm×25 mm polystyrene culture dishes to produce approximately 3×10^6 cells. Second, CSM14.1 cells were recovered from cultures by trypsinization when at 80-90% confluence, and suspended at 7.5×10^4 cells/mL in DMEM medium containing 2% FBS, 1 mM L-glutamine, and antibiotics 100 IU penicillin 100 μg/ml streptomycin. Third, the cell suspension was then delivered at 40 μL per well of 96-well plastic microtiter plates (Greiner Bio One, polystyrene, white wall, flat bottom, lumitrac, high binding, cat #655074), and the plates were cultured overnight at 32° C. in a humidified atmosphere in 95% air: 5% CO2. Fourth, using the automated liquid handler, 5 μL of test compounds in 10% DMSO were added to wells in columns 2-11 of the 96-well plates (leaving columns 1 and 12 intact) to achieve an approximate final concentration of 15 μg/mL test compound and a final concentration of 1% DMSO. Fifth, 5 μL of 1 mM Salubrinal in a solution of 10% DMSO:90% DMEM was added to wells of column 1/rows A-D of each plate, while 5 μL of 10% DMSO:90% DMEM solution was added to wells corresponding to column 1/rows E-H and to all wells in column 12. Sixth, the plates were returned to culture.
In general terms: ATP-based viability assays read luminescence as a measure of living cells.

Another assay has as its system phospho-c-Jun. Description: Immunoblotting of thapsigargin-induced c-Jun phosphorylation in CSM14.1 cells. In kind it is cell-based, rat. Particulars: immunoblotting with phospho-specific antibody, 10 μM, 25 μM hits. An excerpt: After confirming the pathway selectivity of compounds, additional downstream assays can be performed to map the specific signal transduction pathway inhibited by the compounds. In this regard, various antibody reagents are commercially available for assessing the status of the three major pathways known to be activated by ER stress: (1) PERK, (2) Ire1, and (3) ATF6 (Xu et al., J. Clinical Invest., 115:2656-2664, 2005). Immunoblotting experiments can be performed to assess the expression or phosphorylation (using phospho-specific antibodies) of marker proteins in these pathways. […] CSM 14.1 cells were cultured with DMSO or with 25 μM of hit compounds for two hours, followed by treatment of thapsigargin (15 μM). Cell lysates were prepared and analyzed by SDS-PAGE/immunoblotting using antibodies specific for phospho-c-Jun, phospho-eIF2α, phospho-p38 MAPK, and tubulin (a loading control). CSM14.1 cells were cultured with either DMSO or one of the active compounds at 1, 5, and 10 μM, followed two hours later by 15 μM TG. After two hrs, cell lysates were prepared, normalized for protein content, and either analyzed by SDS-PAGE/immunoblotting using anti-p38-MAPK pan-reactive antibody or phospho-specific antibody with ECL-based detection, followed by densitometry analysis of x-ray films, normalizing phosphor-p38 MAPK relative to total p38 MAPK, or analyzed using a meso-scale instrument from MSD and a procedure in which total p38 MAPK is captured on plates, and the relative amounts of phosphorylated protein were determined using phospho-specific antibody (MSD catalog #K15112D1). […] Suppression of p38 MAPK and c-Jun phosphorylation was dose-dependent, and could not be explained by a decline in total levels of these proteins. […] Proteolytic processing of ATF6 was also not inhibited by our hit compounds. […] Screens of other libraries (such as the NIH compound collection) may yield cytoprotective compounds with different mechanisms.
1) CSM14.1 cells were plated at a density of 2×10^5 cells/well at 6 well dish (Greiner Bio one) in DMEM containing 2% FBS and antibiotics.
2) After overnight incubation, cells were treated by DMSO (0.5%) or compounds (25 μM) for two hours, followed by TG (15 uM) treatment.
3) After two hours, cells were lyzed in 250 uL of lysis buffer and subjected to protein concentration decision, and to SDS PAGE/Western blotting using antibodies specific for phospho p38 MAPK (Cell signaling 9211), p38 MAPK (Santa Cruz-C20), phospho c-Jun (Cell signaling 9164), c-Jun (Santa Cruz-SC 1694), phospho eIF2α (Cell signaling 3597) and α-tubulin.
CSM 14.1 cells were cultured with DMSO or with 25 μM of hit compounds for two hours followed by treatment with thapsigargin (15 μM). Cell lysates were prepared and analyzed by SDS-PAGE/immunoblotting using antibodies specific for: c-Jun, phosphor-c-Jun (ser 73), eIF2a, phosphor-eIF2a (ser 51), p38 MAPK, phosphor-p38 MAPK (Thr180/Tyr182), ATF-6, CHOP and tubulin (loading control). ER stress-induced activation of C-Jun and p38 MAPK is suppressed by the 11 hit compounds.
CSM cells were treated with two compounds at increasing doses. Pre-incubation time, thapsigargin treatment, cell extract preparation and immunoblotting protocols were as described previously.
(In general: In western blotting, separated proteins are transferred to a membrane and probed.)

Assay [1] relates to ASK1 (ser 967, ser 83, thr 845). Description: Phosphorylation of ASK1 sites in ASK1-transfected 293T cells (immunoblotting). The format is cell-based. To be noted: ASK1-transfected 293T; for Phosphorylation of ASK1 at ser 967: 100 μM compound, two hours; for Phosphorylation of ASK1 at ser 83 and thr 845: up to 100 μM. The protocol: Phosphorylation of ASK1 at various sites was inspected. 293T cells were transfected with pcDNA-ASK1-HA. One day later, cells were incubated with DMSO (0.4%) or 100 μM compound 6239507 (#1) for two hours. Cell extracts were prepared using lysis buffer and were subjected to immunoblotting using anti-phospho ASK1 antibodies or anti HA antibody as indicated (A). The relative density of each phosphorylated ASK band was calculated by imageJ software (B). In (C), compounds from (A) were compared in activity against thapsigargin-induced cell death. […] (D) 293T cells were transfected with pcDNA-ASK1-HA and pEBG-GST-14-3-3. One day later cells were incubated with DMSO (0.4%) or 100 μM of the indicated compound for two hours. Then cells were treated with thapsigargin (20 μM) for the indicated time. Cell extracts were prepared using lysis buffer, and 14-3-3 proteins were immunoprecipitated with […] sepharose beads. ASK1 protein binding with 14-3-3 was visualized by immunoblotting using anti-HA antibody. Anti-phospho ASK1 (ser967) antibody was used to detect phosphorylation of ASK1 at each time point.
Thus, while not directly inhibiting ASK1 kinase activity, these events are predicted to reduce ASK1 in vivo kinase activity. It is possible that compound 5962123 inhibits a protein phosphatase that regulates phosphorylation of Ser967.
Suppression of thapsigargin-induced phosphorylation of p38MAPK was also measured by a quantitative ELISA-methods, with IC50 for p38MAPK phosphorylation estimated at <5 μM. In contrast, thapsigargin-induced expression of CHOP, expression of ATF4, proteolytic processing of ATF6, phosphorylation of eIF2a (Ser 51), auto-phosphorylation of Ire1a or auto-phosphorylation of ASK1 were not inhibited directly by CID-2878746 at concentrations up to 50 μM tested by in vitro kinase assay using p32-γ-ATP substrate. […] Thapsigargin-induced reductions in phosphorylation of ASK1 at the serine 967 site in ASK1 transfected 293T cells are inhibited by compound 5962123 at concentrations of 50-100 μM, as determined by immunoblotting using anti-phospho-specific (ser 967) antibody, but thapsigargin-induced changes in phosphorylation of ASK1 at ser 83 and thr 845 are not modulated by compound 5962123 at concentrations as high as 100 μM in ASK1-transfected HEK293T cells.
Experiments were also performed to determine whether compound 6239507 enhances phosphorylation of ASK1 at Ser 967 before and after ER stress induction (i.e., thapsigargin treatment). 293T cells were transfected with pcDNA-ASK1-HA. One day later, cells were incubated with DMSO (0.4%) or 100 μM compound 6239507 (#1) for two hours. Then cells were treated with thapsigargin (20 μM) for the indicated times. Cell extracts were prepared by lysis buffer and were subjected to immunoblotting with anti-phospho ASK1 Ser967 antibody or anti HA antibody. The relative density of phosphor ser967 bands were calculated by imageJ software (mean ±SD).
The ser 967 site of ASK1 is known to down-regulate ASK1 activity by phosphorylation (Goldman et al., J. Biol. Chem. 279:10442-10449, 2004) via 14-3-3 binding. […] 293T cells were transfected with pcDNA-ASK1-HA. One day later, cells were incubated with DMSO (0.4%) or 100 μM compound 6239507 (#1) for two hours. Cell extracts were prepared using lysis buffer and were subjected to immunoblotting using anti-phospho ASK1 antibodies or anti HA antibody as indicated. The relative density of each phosphorylated ASK band was calculated by imageJ software. The compounds were compared in activity against thapsigargin-induced cell death. 293T cells were transfected with pcDNA-ASK1-HA and pEBG-GST-14-3-3. One day later cells were incubated with DMSO (0.4%) or 100 μM of the indicated compound for two hours. Then cells were treated with thapsigargin (20 μM) for the indicated time. Cell extracts were prepared using lysis buffer, and 14-3-3 proteins were immunoprecipitated with […] sepharose beads. […]

Where [2] appears, read: one value given, read-out: IC50.
Setting [3] is: first assay, read-out: IC50 (μM), first value.
[4] abbreviates: second assay (value in bold), read-out: IC50 (μM), value from a second assay.
Where [5] appears, read: Rattus norvegicus, one value given, read-out: IC50.

Molecules are shown by their SMILES. “Also recorded” adds a separate entry of the source. Where two headings read alike, the source gives them in different places. Bounds are passed on as bounds.

Turning to `COc1ccc(C2CC(=O)C3=C(C2)Nc2ccccc2NC3c2cccc(O)c2)cc1` (stereo not drawn) [Compound 6048163], the “Activity against thapsigargin-induced cell death / cell protection” value in the assay on CSM14.1 cells (cell death assay used for primary screening) was “inactive in cell protection; also recorded: not potent as an inhibitor of cell death”. Also, the IC50 in the assay with CSM14.1 cells (setting [2]) was over 200 µM. For the same molecule, the “Thapsigargin-induced phosphorylation of c-Jun” value in the assay on phospho-c-Jun is listed as “fail to suppress”.
Regarding `CCOc1cc(C2Nc3ccccc3NC3=C2C(=O)CC(c2ccc(OC)cc2)C3)cc(Cl)c1O` (stereo not drawn) [Compound 6049448], the IC50 in the assay on CSM14.1 cells (setting [3]) was 24.8 ± 2.03 µM; with CSM14.1 cells (setting [2]), 23.7 ± 0.642 µM; in the assay with CSM14.1 cells (setting [4]), 23.7 ± 0.642 µM. Besides, the “Phosphorylation of ASK1 at ser 967” value in assay [1] is “enhanced phosphorylation of ser 967 only”. The “Phosphorylation of ASK1 at ser 83 and thr 845” value in assay [1] is “not ser 83 or thr 845”.
`COc1ccc(C2CC(=O)C3=C(C2)Nc2ccccc2NC3c2cc(C)ccc2C)cc1` (stereo not drawn) [Compound 6238767]: the 50% inhibitory concentration (IC50) is 13.3 ± 1.17 µM in the assay with CSM14.1 cells (setting [3]), 12.5 ± 0.177 µM in the assay on CSM14.1 cells (setting [2]) and 12.5 ± 0.177 µM with CSM14.1 cells (setting [4]). For the same molecule, in assay [1], the “Phosphorylation of ASK1 at ser 967” value was “enhanced phosphorylation of ser 967 only”. The “Phosphorylation of ASK1 at ser 83 and thr 845” value in assay [1] is listed as “not ser 83 or thr 845”.
In the case of `COc1ccc(C2CC(=O)C3=C(C2)Nc2ccccc2NC3c2ccc(-c3ccccc3)cc2)cc1OC` (stereo not drawn) [Compound 6239945, 11-(4-biphenylyl)-3-(3,4-dimethoxyphenyl)-2,3,4,5,10,11-hexahydro-1H-dibenzo[b,e][1,4]diazepin-1-one], in the assay with CSM14.1 cells (setting [5]), the IC50 amounted to 21.8 ± 2.97 µM.
As for `COc1ccc(C2CC(=O)C3=C(C2)Nc2ccccc2NC3c2ccccc2[N+](=O)[O-])cc1OC` (stereo not drawn) [Compound 6240043], the concentration for half-maximal inhibition (IC50) in the assay with CSM14.1 cells (setting [2]) turned out to be 39.6 ± 1.99 µM.
The same measure, in the same setting: in the case of `COc1ccc(C2CC(=O)C3=C(C2)Nc2ccccc2NC3c2c(F)cccc2F)cc1` (stereo not drawn) [Compound 6241186] it was 25 ± 0.175 µM; in that of `O=C1CC(c2ccccc2)CC2=C1C(c1cccc3ccccc13)Nc1ccccc1N2` (stereo not drawn) [Compound 6366991], 22.2 ± 2.8 µM.
As to `COc1ccc(C2CC(=O)C3=C(C2)Nc2ccccc2NC3c2ccccc2C)cc1OC` (stereo not drawn) [Compound 6369841, 3-(3,4-dimethoxyphenyl)-11-(2-methylphenyl)-2,3,4,5,10,11-hexahydro-1H-dibenzo[b,e][1,4]diazepin-1-one], the 50% inhibitory concentration (IC50) in the assay with CSM14.1 cells (setting [5]) worked out at 36.5 ± 2.19 µM.

A word on the IC50: it is the concentration that gives 50% inhibition.
